Measured values taken from patent publication US7494821B2, “Fluorescein based sensors for tracking nitric oxide in live cells” (Massachusetts Institute of Technology, priority 2005, dated 2009).

Experiments:
[1] = Specificity for NO over other reactive nitrogen and oxygen species; conditions: 100 equivalents of O2−, ClO−, H2O2, HNO, NO2−, NO3−, ONOO−, 2 h, pH 7.0 buffer, 1 μM
Procedure: FIG. 6 illustrates the specificity of Cu(FL5) for NO over other reactive nitrogen and oxygen species. The fluorescence response of Cu(FL5) was determined after addition of 100 equivalents of O2^−, ClO^−, H2O2, HNO (Angeli's salt Na2N2O3), NO2^−, NO3^−, and ONOO^− for 2 h in buffered aqueous solution (50 mM PIPES, pH 7.0, 100 mM KCl). The excitation wavelength was 503 nm. All data (F) are normalized with respect to the emission of Cu(FL5) (F(Cu(FL5))). [Cu(FL5)]=1 μM. Error bars indicate s.d.
The fluorescence of a 1 μM FL5 solution was diminished by 18±3% upon introduction of an equimolar quantity of CuCl2 at 37° C. Addition of excess NO to a buffered aqueous Cu(FL5) solution led to an immediate 11.2±1.5-fold increase in fluorescence (FIG. 5). […] The lower detection limit for NO is 5 nM.

iNOS = iNOS expression in Raw 264.7 cells (Western blot); assay type: cell-based, murine; conditions: Raw 264.7 cells upon introduction of LPS and IFN-γ
Procedure: Raw 264.7, SK-N-SH, and HeLa cells were purchased from the American Type Culture Collection (ATCC). All three cell lines were maintained in Dulbecco's modified Eagles' media (DMEM) (GibcoBRL) containing 10% (v/v) heat-inactivated fetal bovine serum (FBS) (HyClone), 1 mM sodium pyruvate (Sigma), 100 units/ml penicillin, 100 μg/ml streptomycin (Invitrogen), and 0.1 mM nonessential amino acid solution for minimal essential medium (Sigma). All cells were grown at 37° C. in a humidified atmosphere of 10% CO2. A nitrite assay was performed with Griess reagents (Promega) on Raw 264.7 cells grown in DMEM free of phenol red. Calcium sensor fluo-4 AM was purchased from Invitrogen. MTT [3-(4,5-dimethylthiazol-2-yl)-2,5-diphenyltetrazolium bromide] (Sigma-Aldrich) assay was described in Supplementary information. The expression of iNOS in Raw 264.7 cells was analyzed by Western blot on the extracts of cells stimulated by LPS and INF-γ. The protein was silenced by short hairpin RNA-induced RNAi and the resulting cell lines were used in fluorescence imaging by Cu(FL5).

**Q.** Which results are given for `Cc1ccc2cccc(NCc3c([O][Cu][Cl])ccc4c(-c5ccccc5C(=O)O)c5cc(Cl)c(=O)cc-5oc34)c2n1` [Cu(FL5)]?
**A.** fluorescence response specificity for NO over other reactive species [1]: detects NO specifically; effect on expression of iNOS (iNOS): does not affect the expression of iNOS
